Converted amounts (≈) assume the structure as drawn.
Experiments:
[1] = tested on: Haemophilus influenzae; assay: Antimicrobial activity against beta-lactamase-positive ampicillin-resistant Haemophilus influenzae harboring […] mutant gene by broth microdilution method in presence of beta-lactamase inhibitor Tazobactam; format: functional
[2] = tested on: Haemophilus influenzae; assay: Antimicrobial activity against beta-lactamase negative ampicillin-resistant-Haemophilus influenzae harboring […] mutant gene by disk diffusion method in presence of beta-lactamase inhibitor Tazobactam; format: functional
[3] = tested on: Haemophilus influenzae; assay: Antimicrobial activity against beta-lactamase positive (amoxicillin)clavulanate-resistant Haemophilus influenzae assessed as susceptible isolates by broth microdilution method in presence of beta-lactamase inhibitor Tazobactam; format: functional
[4] = tested on: Haemophilus influenzae; assay: Antimicrobial activity against beta-lactamase negative ampicillin-susceptible Haemophilus influenzae harboring […] mutant gene assessed as susceptible isolates by broth microdilution method in presence of beta-lactamase inhibitor Tazobactam; format: functional
[5] = tested on: Haemophilus influenzae; assay: Antimicrobial activity against beta-lactamase negative ampicillin-resistant Haemophilus influenzae assessed as susceptible isolates by broth microdilution method in presence of beta-lactamase inhibitor Tazobactam; format: functional
[6] = tested on: Haemophilus influenzae; assay: Antimicrobial activity against beta-lactamase positive (amoxicillin)clavulanate-resistant Haemophilus influenzae by broth microdilution method; format: functional
[7] = tested on: Haemophilus influenzae; assay: Antimicrobial activity against beta-lactamase negative ampicillin-susceptible Haemophilus influenzae harboring […] mutant gene by broth microdilution method in presence of beta-lactamase inhibitor Tazobactam; format: functional
[8] = tested on: Haemophilus influenzae; assay: Antimicrobial activity against beta-lactamase negative ampicillin-resistant -Haemophilus influenzae by broth microdilution method; format: functional
[9] = tested on: Haemophilus influenzae; assay: Antimicrobial activity against beta-lactamase-positive ampicillin-resistant Haemophilus influenzae harboring fst1 mutant gene assessed as susceptible isolates by broth microdilution method in presence of beta-lactamase inhibitor Tazobactam; format: functional
[10] = tested on: Haemophilus influenzae; assay: Antimicrobial activity against beta-lactamase negative […]-Haemophilus influenzae harboring […] mutant gene by disk diffusion method in presence of beta-lactamase inhibitor Tazobactam; format: functional
[11] = tested on: Haemophilus influenzae; assay: Antimicrobial activity against beta-lactamase negative ampicillin-resistant Haemophilus influenzae by broth microdilution method in presence of beta-lactamase inhibitor Tazobactam; format: functional
[12] = tested on: Haemophilus influenzae; assay: Antimicrobial activity against beta-lactamase positive (amoxicillin)clavulanate-resistant Haemophilus influenzae by broth microdilution method in presence of beta-lactamase inhibitor Tazobactam; format: functional
[13] = tested on: Haemophilus influenzae; assay: Antimicrobial activity against beta-lactamase positive ampicillin-resistant-Haemophilus influenzae gyrA Ser84Leu, parC Ser84Arg/Asn138Ser and parE Asp364Gly mutant gene by broth microdilution method
[14] = tested on: Haemophilus influenzae; assay: Antimicrobial activity against beta-lactamase negative ampicillin-resistant-Haemophilus influenzae harboring fst1 mutant gene and gyrA Ser84Leu, parC Asn138Ser and parE Ser474Asn mutant gene by broth microdilution method
[15] = tested on: Haemophilus influenzae; assay: Antimicrobial activity against beta-lactamase positive (amoxicillin)-clavulanate-resistant Haemophilus influenzae harboring fst1 mutant gene and gyrA Ser84Leu and parE Ala369Thr mutant gene by broth microdilution method
[16] = tested on: Haemophilus influenzae; assay: Antimicrobial activity against beta-lactamase positive (amoxicillin)-clavulanate-resistant Haemophilus influenzae harboring fst1 mutant gene and gyrA Asp88Thr mutant gene by broth microdilution method
[17] = tested on: Haemophilus influenzae; assay: Antimicrobial activity against beta-lactamase positive (amoxicillin)-clavulanate-resistant -Haemophilus influenzae harboring fst1 mutant gene and gyrA Ser84Leu, parC Ser84Cys and parE Asp364Thr mutant gene by broth microdilution method
[18] = tested on: Haemophilus influenzae; assay: Antimicrobial activity against beta-lactamase negative ampicillin-resistant-Haemophilus influenzae harboring fst1 mutant gene and gyrA Ser84Leu, parC Ser133Ala/Asn138Ser mutant gene by broth microdilution method
[19] = tested on: Haemophilus influenzae; assay: Antimicrobial activity against beta-lactamase negative ampicillin-resistant-Haemophilus influenzae harboring fst1 mutant gene and gyrA Ser84Leu mutant gene by broth microdilution method
[20] = tested on: Haemophilus influenzae; assay: Antimicrobial activity against beta-lactamase negative ampicillin-susceptible-Haemophilus influenzae harboring gyrA Asp88Gly, gyrB Thr472Ile and parC Asp83Asn mutant gene by broth microdilution method
[21] = tested on: Haemophilus influenzae; assay: Antimicrobial activity against beta-lactamase positive (amoxicillin)-clavulanate-resistant Haemophilus influenzae harboring fst1 mutant gene and gyrA Ser84Leu, parC Ser84Ile/Asn138Ser mutant gene by broth microdilution method
[22] = tested on: Haemophilus influenzae; assay: Antimicrobial activity against beta-lactamase positive (amoxicillin)-clavulanate-resistant Haemophilus influenzae harboring fst1 mutant gene and gyrA Ser84Leu/Asp88Gly, parC Glu88Lys and parE VAl392Ile/Asp420Asn mutant gene by broth microdilution method
[23] = tested on: Haemophilus influenzae; assay: Antimicrobial activity against beta-lactamase negative ampicillin-resistant-Haemophilus influenzae harboring fst1 mutant gene and gyrA Asp88Thr and parC Glu88Lys mutant gene by broth microdilution method
[24] = tested on: Haemophilus influenzae; assay: Antimicrobial activity against beta-lactamase positive ampicillin-resistant-Haemophilus influenzae gyrA Asp88Asn, parC Ser84Cys and parE Ala369Thr mutant gene by broth microdilution method
[25] = tested on: Haemophilus influenzae; assay: Antimicrobial activity against beta-lactamase positive (amoxicillin)-clavulanate-resistant Haemophilus influenzae harboring fst1 mutant gene and gyrA Ser84Leu, parC Ser84Cys and parE Ala369Thr mutant gene by broth microdilution method
[26] = tested on: Haemophilus influenzae; assay: Antimicrobial activity against beta-lactamase-positive ampicillin-resistant Haemophilus influenzae harboring fst1 mutant gene by broth microdilution method in presence of beta-lactamase inhibitor clavulanic acid; format: functional
[27] = tested on: Haemophilus influenzae; assay: Antimicrobial activity against beta-lactamase-positive ampicillin-resistant Haemophilus influenzae harboring […] mutant gene assessed as susceptible isolates by broth microdilution method in presence of beta-lactamase inhibitor clavulanic acid; format: functional
[28] = tested on: Haemophilus influenzae; assay: Antimicrobial activity against beta-lactamase negative ampicillin-resistant Haemophilus influenzae by broth microdilution method in presence of beta-lactamase inhibitor clavulanic acid; format: functional
[29] = tested on: Haemophilus influenzae; assay: Antimicrobial activity against beta-lactamase negative ampicillin-susceptible Haemophilus influenzae harboring […] mutant gene by broth microdilution method in presence of beta-lactamase inhibitor clavulanic acid; format: functional
[30] = tested on: Haemophilus influenzae; assay: Antimicrobial activity against beta-lactamase negative ampicillin-resistant Haemophilus influenzae assessed as susceptible isolates by broth microdilution method in presence of beta-lactamase inhibitor clavulanic acid; format: functional
[31] = tested on: Haemophilus influenzae; assay: Antimicrobial activity against beta-lactamase negative ampicillin-susceptible Haemophilus influenzae harboring […] mutant gene assessed as susceptible isolates by broth microdilution method in presence of beta-lactamase inhibitor clavulanic acid; format: functional
[32] = tested on: Haemophilus influenzae; assay: Antimicrobial activity against beta-lactamase positive (amoxicillin)clavulanate-resistant Haemophilus influenzae by broth microdilution method in presence of beta-lactamase inhibitor clavulanic acid; format: functional
[33] = tested on: Haemophilus influenzae; assay: Antimicrobial activity against beta-lactamase positive (amoxicillin)clavulanate-resistant Haemophilus influenzae assessed as susceptible isolates by broth microdilution method in presence of beta-lactamase inhibitor clavulanic acid; format: functional
[34] = tested on: Haemophilus influenzae; assay: Antimicrobial activity against beta-lactamase negative ampicillin-susceptible Haemophilus influenzae harboring […] mutant gene assessed as susceptible isolates by broth microdilution method in presence of beta-lactamase inhibitor Sulbactam; format: functional
[35] = tested on: Haemophilus influenzae; assay: Antimicrobial activity against beta-lactamase-positive ampicillin-resistant Haemophilus influenzae harboring fst1 mutant gene by broth microdilution method in presence of beta-lactamase inhibitor Sulbactam; format: functional
[36] = tested on: Haemophilus influenzae; assay: Antimicrobial activity against beta-lactamase positive (amoxicillin)clavulanate-resistant Haemophilus influenzae by broth microdilution method in presence of beta-lactamase inhibitor Sulbactam; format: functional
[37] = tested on: Haemophilus influenzae; assay: Antimicrobial activity against beta-lactamase negative ampicillin-resistant Haemophilus influenzae by broth microdilution method in presence of beta-lactamase inhibitor Sulbactam; format: functional
[38] = tested on: Haemophilus influenzae; assay: Antimicrobial activity against beta-lactamase-positive ampicillin-resistant Haemophilus influenzae harboring fst1 mutant gene by broth microdilution method; format: functional
[39] = tested on: Haemophilus influenzae; assay: Antimicrobial activity against beta-lactamase negative ampicillin-susceptible Haemophilus influenzae harboring […] mutant gene by broth microdilution method; format: functional
[40] = tested on: Haemophilus influenzae; assay: Antimicrobial activity against beta-lactamase negative ampicillin-susceptible Haemophilus influenzae harboring […] mutant gene assessed as susceptible isolates by broth microdilution method; format: functional
[41] = tested on: Haemophilus influenzae; assay: Antimicrobial activity against beta-lactamase negative ampicillin-resistant Haemophilus influenzae assessed as susceptible isolates by broth microdilution method; format: functional
[42] = tested on: Haemophilus influenzae; assay: Antimicrobial activity against beta-lactamase negative ampicillin-resistant Haemophilus influenzae assessed as susceptible isolates by broth microdilution method in presence of beta-lactamase inhibitor Sulbactam; format: functional
[43] = tested on: Haemophilus influenzae; assay: Antimicrobial activity against beta-lactamase positive (amoxicillin)clavulanate-resistant Haemophilus influenzae assessed as susceptible isolates by broth microdilution method in presence of beta-lactamase inhibitor Sulbactam; format: functional
[44] = tested on: Haemophilus influenzae; assay: Antimicrobial activity against beta-lactamase positive (amoxicillin)clavulanate-resistant Haemophilus influenzae assessed as susceptible isolates by broth microdilution method; format: functional
[45] = tested on: Haemophilus influenzae; assay: Antimicrobial activity against beta-lactamase-positive ampicillin-resistant Haemophilus influenzae harboring […] mutant gene assessed as susceptible isolates by broth microdilution method in presence of beta-lactamase inhibitor Sulbactam; format: functional
[46] = tested on: Haemophilus influenzae; assay: Antimicrobial activity against beta-lactamase-positive ampicillin-resistant Haemophilus influenzae harboring fst1 mutant gene assessed as susceptible isolates by broth microdilution method; format: functional
[47] = tested on: Haemophilus influenzae; assay: Antimicrobial activity against beta-lactamase negative ampicillin-susceptible Haemophilus influenzae harboring […] mutant gene by broth microdilution method in presence of beta-lactamase inhibitor Sulbactam; format: functional

CCN1CCN(C(=O)N[C@@H](C(=O)N[C@@H]2C(=O)N3[C@@H]2SC(C)(C)[C@@H]3C(=O)O)c2ccccc2)C(=O)C1=O [PIPERACILLIN]
MIC [1]: ≤ 0.03 µg/mL | MIC50 [1]: ≤ 0.03 µg/mL | MIC90 [1]: 0.06 µg/mL | inhibition zone (IZ) [2]: >=21 mm | Activity [3]: 100% | Activity [4]: 100% | Activity [5]: 100% | MIC50 [6]: 32 µg/mL | MIC90 [6]: ≥ 64 µg/mL | MIC [7]: ≤ 0.03 µg/mL | MIC50 [7]: ≤ 0.03 µg/mL | MIC90 [7]: 0.06 µg/mL | MIC50 [8]: 0.12 µg/mL (≈ 0.232 µM) | MIC90 [8]: 0.25 µg/mL (≈ 0.483 µM) | Activity [9]: 100% | inhibition zone (IZ) [10]: >=21 mm | MIC50 [11]: 0.06 µg/mL | MIC90 [11]: 0.12 µg/mL | MIC50 [12]: 0.12 µg/mL | MIC90 [12]: 0.25 µg/mL

O=C(O)c1cn(C2CC2)c2cc(N3CCNCC3)c(F)cc2c1=O [CIPROFLOXACIN]
MIC [13]: 0.25 µg/mL (≈ 0.754 µM) | MIC [14]: 0.06 µg/mL (≈ 0.181 µM) | MIC [15]: 0.06 µg/mL | MIC [16]: 0.06 µg/mL | MIC [17]: 0.25 µg/mL | MIC [18]: 0.06 µg/mL (≈ 0.181 µM) | MIC [19]: 0.06 µg/mL (≈ 0.181 µM) | MIC [20]: 0.25 µg/mL (≈ 0.754 µM) | MIC [21]: 0.5 µg/mL | MIC [22]: 16 µg/mL | MIC [23]: 0.06 µg/mL (≈ 0.181 µM) | MIC [24]: 0.25 µg/mL (≈ 0.754 µM) | MIC [25]: 0.06 µg/mL

CC1(C)S[C@@H]2[C@H](NC(=O)[C@H](N)c3ccc(O)cc3)C(=O)N2[C@H]1C(=O)O [AMOXICILLIN]
MIC [26]: 0.5 µg/mL | MIC50 [26]: 0.5 µg/mL | MIC90 [26]: 1 µg/mL | Activity [27]: 100% | MIC50 [28]: 8 µg/mL | MIC90 [28]: 8 µg/mL | MIC50 [29]: 0.5 µg/mL | MIC90 [29]: 1 µg/mL | Activity [30]: 27% | Activity [31]: 100% | MIC [32]: 8 µg/mL | MIC50 [32]: 8 µg/mL | MIC90 [32]: 8 µg/mL | Activity [33]: 0%

CC1(C)S[C@@H]2[C@H](NC(=O)[C@H](N)c3ccccc3)C(=O)N2[C@H]1C(=O)O [AMPICILLIN]
Activity [34]: 100% | MIC [35]: 0.5 µg/mL | MIC50 [35]: 0.25 µg/mL | MIC90 [35]: 0.5 µg/mL | MIC [36]: 8 µg/mL | MIC50 [36]: 8 µg/mL | MIC90 [36]: 16 µg/mL | MIC [6]: ≥ 8 µg/mL | MIC50 [6]: ≥ 8 µg/mL | MIC90 [6]: ≥ 8 µg/mL | MIC50 [37]: 4 µg/mL | MIC90 [37]: 8 µg/mL | MIC50 [38]: ≥ 8 µg/mL | MIC90 [38]: ≥ 8 µg/mL | MIC50 [39]: 0.25 µg/mL (≈ 0.715 µM) | MIC90 [39]: 0.5 µg/mL (≈ 1.43 µM) | Activity [40]: 100% | Activity [41]: 0% | MIC50 [8]: 4 µg/mL (≈ 11.4 µM) | MIC90 [8]: ≥ 8 µg/mL | Activity [42]: 22% | Activity [43]: 0% | Activity [44]: 0% | Activity [45]: 75% | Activity [46]: 0% | MIC50 [47]: 0.5 µg/mL | MIC90 [47]: 0.5 µg/mL

C[C@@H](O)[C@H]1C(=O)N2C(C(=O)O)=C(SCCNC=N)C[C@H]12 [IMIPENEM ANHYDROUS]
MIC50 [6]: 2 µg/mL | MIC90 [6]: 2 µg/mL | Activity [41]: 96% | MIC50 [8]: 1 µg/mL (≈ 3.34 µM) | MIC90 [8]: 4 µg/mL (≈ 13.4 µM) | Activity [44]: 98%

CO/N=C(\C(=O)N[C@@H]1C(=O)N2C(C(=O)O)=C(CSc3nc(=O)c(O)nn3C)CS[C@H]12)c1csc(N)n1 [CEFTRIAXONE]
MIC50 [6]: 0.12 µg/mL | MIC90 [6]: 0.25 µg/mL | Activity [41]: 100% | MIC50 [8]: 0.25 µg/mL (≈ 0.451 µM) | MIC90 [8]: 0.25 µg/mL (≈ 0.451 µM) | Activity [44]: 100%

C[C@@H](O)[C@H]1C(=O)N2C(C(=O)O)=C(S[C@@H]3CN[C@H](C(=O)N(C)C)C3)[C@H](C)[C@H]12 [MEROPENEM]
MIC50 [6]: 0.25 µg/mL | MIC90 [6]: 0.5 µg/mL | Activity [41]: 99% | MIC50 [8]: 0.25 µg/mL (≈ 0.652 µM) | MIC90 [8]: 0.5 µg/mL (≈ 1.3 µM) | Activity [44]: 100%
